Bounds are passed on as bounds.

As for `Cc1nn(-c2ccccn2)c2ncc(C(=O)NCc3ccccc3)c(O)c12`, the melting point was more than 300 °C.

`COC(COc1cccc2c(OCC(OC)OC)cccc12)OC` yielded a melting point of 117 °C.

`CC(C)CCCC(C)C1CCC2C3CCC4CC(=O)CC(C)C4(C)C3CCC12C` (stereo not drawn) displayed a melting point of 132 to 133 °C.

Consider `CC(c1ccccc1)c1n[nH]c2c1c(=O)n(-c1ccccc1)c1ncccc21` (stereo not drawn), for which the melting point lay in the range of 267 to 268 °C.

Compound `CCOC(=O)NC(=O)Nc1ccc(Cl)cc1C(=O)c1ccccc1F` yielded a melting point of 208 to 209 °C.

As to `COP(=O)(CCC(C)(C)c1ccc(O)cc1)OC`, the melting point fell in the range of 98 to 101 °C.

On to `CCOC(=O)CCc1c(C)c(NC(=O)CC(C)(C)C)c(C)c2c1OCC2c1ccc(C(C)C)cc1` (stereo not drawn), for which the melting point was 150 to 151 °C.

`COCc1ccoc1C(=O)c1[nH]c2cc(Cl)ccc2c1CC(=O)O` showed a melting point of 212 to 213 °C.

`CC(=O)NC1=CC(C)(C)Oc2ccc(C#N)cc21` showed a melting point of 146 to 147 °C.

`O=c1ccn(CCO)c(C(O)c2cccnc2)c1OCc1ccccc1` (stereo not drawn) yielded a melting point of 182 to 183 °C.

Consider `CC(C)CCOC(=O)C(C)Oc1cc(-c2nn(C)c(C(F)(F)F)c2Cl)c(F)cc1Cl` (stereo not drawn), for which the melting point came out at 128 °C.

The compound `COC(=O)[C@H]1CC[C@@H](c2c(-c3ccccc3)n(C)c3ccccc32)CC1` yielded a melting point of 141 to 142 °C.

`COc1cc(OCCCN2CCN(c3nn(C(=O)c4ccccc4)c4cc(F)ccc34)CC2)ccc1C(C)=O` displayed a melting point of 138 to 140 °C.

For `COc1cccc(C(=O)C=Cc2cccc(O)c2)c1`, the melting point is 74 to 77 °C.

`CCCN1CC(c2ccc(F)cc2)=C(c2ccc(S(N)(=O)=O)cc2)C1=O` came in with a melting point of 180 to 181 °C.

As to `CN1CCN(C(=O)c2cc(-c3ccccc3)c(=O)[nH]c2-c2c(Cl)cccc2C#N)CC1`, the melting point was in the range of 250 to 253 °C.

Regarding `CN(C)C(=O)c1cc(Cl)ccc1N`, the melting point was in the range of 97 to 98 °C.

As for `O=C(O)CCc1cnoc1-c1ccc2c(c1)OCO2`, the melting point lay within 150 to 151 °C.

As for `NS(=O)(=O)c1cnc(-c2ccccc2)s1`, the melting point lay within 209 to 210 °C.

As to `CCCc1nn(-c2ccc(C(F)(F)F)cn2)cc1COc1ccc(CCC(=O)O)c(C)c1`, the melting point lay within 129 to 130 °C.

For `O=C(O)CSC1c2cccc(O)c2C(=O)c2c(O)cccc21`, the melting point lay in the range of 151 to 152 °C.

Compound `CCCCC(CC)c1nc2cc(Cl)c(C#N)c(C)n2n1` (stereo not drawn) yielded a melting point of 95 to 96 °C.

Turning to `O=S(=O)(Nc1ccccc1)c1cccc(Br)c1`, the melting point fell in the range of 98 to 100 °C.

Regarding `COc1ccc(-c2cc(=O)cc(N3CCOCC3)o2)cc1`, the melting point was found to be 220 °C.

`CCOC(=O)C1=COc2cc(C(C)(C)C)c(OC(C)=O)cc2O1` returned a melting point of 144 °C.

For `CC1=CC(=O)c2cc(O)ccc2C1=O`, the melting point stood at 175 °C.

Compound `Cc1cc(C)n(C)c(=O)c1C(=O)O` had a melting point of 200 to 204 °C.

As for `O=CN1CCN(c2ncc3c(=O)c(C(=O)ON4C(=O)CCC4=O)c[nH]c3n2)CC1`, the melting point was more than 300 °C.

For `CS(=O)(=O)Nc1cc2c(cc1Oc1ccccc1)C(=O)C(Br)CO2` (stereo not drawn), the melting point lay within 137 to 140 °C.

As to `CC(C)n1nc(-c2ncc(O)nc2-c2ccccc2)ccc1=O`, the melting point was 225 to 227 °C.

Consider `Cc1oc(-c2ccccc2)nc1COc1ccc(Sc2nc(CC(=O)O)cs2)cc1`, for which the melting point fell in the range of 180 to 181 °C.

Compound `CN(C)C1CCC(O)(c2ccccc2Cc2ccccc2)CC1` (stereo not drawn) returned a melting point of 140 to 141 °C.

On to `CC1CCN(CC#CCN2C(=O)c3cccc4c3N(CC4)c3ccccc32)CC1`, for which the melting point lay within 157 to 158 °C.

In turn, `COC1OC(COCc2ccccc2)C(OCc2ccccc2)C(OCc2ccccc2)C1OCc1ccccc1` (stereo not drawn) displayed a melting point of 68 to 69 °C.

In turn, `CC(C)SC(=O)CCS(=O)(=O)C(C)C` displayed a melting point of 45 to 47 °C.

For `COc1ccc(-c2nc3n(c2-c2cccnc2)CCC3)cc1`, the melting point lay within 164 to 165 °C.

For the compound `Cc1cccc2c(=O)[nH]c(N3CCC(N(C)C)CC3)cc12`, the melting point was 217 to 218 °C.

As to `Cc1ccccc1-c1nc(-c2ccccc2Cl)sc1-c1ccc(S(C)(=O)=O)cc1`, the melting point lay within 156 to 157 °C.

Take `O=C(Oc1ccccc1)c1cc(Cl)c2ccccc2c1O`: the melting point was 102 to 104 °C.

Turning to `O=C1C2CC3CC1CC(OCc1ccc(-c4nc5ccccc5o4)cc1)(C3)C2`, the melting point lay in the range of 159 to 160 °C.

Compound `Nc1c(N=O)c(=O)[nH]c(=O)n1Cc1ccc(Cl)cc1` displayed a melting point of more than 320 °C.

As to `CS(=O)(=O)c1ccc(-c2cnn(Cc3ccc([N+](=O)[O-])cc3)c(=O)c2-c2ccc(F)cc2)cc1`, the melting point lay within 183 to 184 °C.

In turn, `CCOC(=O)c1c(C)nc2c(nc(C)n2CC)c1OCC` yielded a melting point of 62 to 65 °C.

Take `Cc1nnc(C(=O)CCCCCCOc2ccccc2)o1`: the melting point was 75 to 77 °C.

`COc1ccc(-c2nn(Cc3ccccc3)c(=O)c3ccccc23)c(OC)c1OC` returned a melting point of 144 to 145 °C.

`CCOC(=O)C(Cc1ccc(C)c(C)c1)(NC(C)=O)C(=O)OCC`: the melting point fell in the range of 107 to 109 °C.

Compound `CN1Cc2c(C(N)=O)ncn2-c2ccccc2C1=O` came in with a melting point of 274 to 275 °C.

For `OC1(CSc2ccc(-c3ccccc3)cc2)CN2CCC1CC2` (stereo not drawn), the melting point lay within 145 to 147 °C.

`COc1ccc(C(=O)NCCCCCCNC(=O)c2ccc(OC)cc2)cc1` returned a melting point of 177 to 178 °C.

Compound `CCCN(CCCCc1c[nH]c2ccc(F)cc12)C1COc2c(F)ccc(C(=O)NC)c2C1` (stereo not drawn) yielded a melting point of 110 °C.

`CC(C)(C)OC(=O)N1c2ccccc2CC1COc1ccc(CC2SC(=O)N(C(c3ccccc3)(c3ccccc3)c3ccccc3)C2=O)cc1` (stereo not drawn) showed a melting point of 85.4 to 87.2 °C.

Turning to `CC(C)n1nc(-c2sc(C(=O)N3CCCCC3)nc2-c2ccccc2)ccc1=O`, the melting point is 111 to 112 °C.

Consider `CCCc1nn(C)c2c(=O)[nH]c(-c3ccc(OC)c(OC)c3)nc12`, for which the melting point lay in the range of 210 to 212 °C.

Consider `Cc1sc(NC(=O)CCc2cnoc2-c2ccccc2)nc1-c1ccccc1`, for which the melting point lay in the range of 150 to 151 °C.

The compound `COc1cc2c3ccc(OC)c(OC)c3n(C(=O)c3ccc(C(C)(C)C)cc3)c2cc1OC` gave a melting point of 129 to 131 °C.

For the compound `COC(=O)C(C(=O)OC)C(Cc1c(N)cccc1C(F)(F)F)c1ccc(OC)cc1` (stereo not drawn), the melting point was in the range of 111 to 113 °C.

Turning to `Cc1oc(C=Cc2cccc(Cl)c2)nc1CC#N`, the melting point lay within 119 to 120 °C.

The compound `CN1Cc2c(-c3noc(CN4CCCC(C)(C)C4)n3)ncn2-c2ccccc2C1=O` showed a melting point of 167 to 168 °C.

In turn, `N#CCCCCC(=O)c1ccc(Br)cc1` displayed a melting point of 47 to 48 °C.

Consider `CN(C(=O)c1ccccc1N(CC(=O)N1CCCC(C)(C)C1)C(=O)CN1C(=O)c2ccccc2C1=O)c1ccccc1`, for which the melting point was found to be 180 °C.

In turn, `CC(=O)NC[C@H]1CN(c2ccc(N3CCC(C)(O)CC3)c(F)c2)C(=O)O1` had a melting point of 180 to 182 °C.

In turn, `CNC(=O)N(OC)c1ccc(Oc2ccc3sncc3c2)c(C(F)(F)F)c1` displayed a melting point of 197 °C.

In turn, `CC#CCOc1cc(/C=C/C(=O)O)ccc1OC(F)F` yielded a melting point of 206 to 208 °C.

In turn, `COC1CC(C)(OCc2ccccc2)C2COC1O2` (stereo not drawn) registered a melting point of 45 to 46 °C.

For the compound `Cn1ncc2c1CS(=O)c1cn[nH]c1-2` (stereo not drawn), the melting point is more than 270 °C.

The compound `CCCCOC(=O)NCCc1nc(-c2ccc(-c3ccccc3)cc2)c(C)[nH]1` came in with a melting point of 143 to 144 °C.

With `Cn1cncc1C(O)(c1ccc(Cl)cc1)c1ccc2nc(C=O)cc(-c3cccc(Cl)c3)c2c1` (stereo not drawn), the melting point turned out to be 205 °C.

Consider `O=c1[nH]c2cc(Cl)ccc2c(O)c1-c1ccc([N+](=O)[O-])cc1`, for which the melting point was more than 350 °C.

With `CNC1=NS(=O)N=C1CCS` (stereo not drawn), the melting point was in the range of 191 to 193 °C.

`CNC(=O)c1ccccc1Nc1nc(Nc2ccc3c(c2)CCCCN3C)ncc1Cl` had a melting point of 170 to 172 °C.

In the case of `OCCCNC(Cn1ccnc1)c1ccc(Cl)cc1Cl` (stereo not drawn), the melting point fell in the range of 77 to 79 °C.

The compound `CS(=O)(=O)N1CC2(CCN(C(=O)Nc3cnc(-c4ccccc4)cn3)CC2)c2ccccc21` gave a melting point of 201 to 203 °C.

For the compound `CCOC(=O)NS(=O)(=O)c1ccc2c(c1)CCN(C(=O)N(C)C)CC2`, the melting point lay in the range of 140 to 141 °C.

As for `O=C(Nc1cc(F)ccc1N1CCCCC1)c1ccncc1`, the melting point lay in the range of 115 to 116 °C.

For `CCCOC(=O)c1cc(-n2c(OC)nc(C(F)(F)F)cc2=O)c(F)cc1Cl`, the melting point fell in the range of 55 to 57 °C.

In turn, `COc1ccc(C(=O)NCCC=CCCCNC(=O)c2ccc(OC)cc2)cc1` yielded a melting point of 141 to 143 °C.

Take `N=C(NC(=O)c1ccccc1)N1CCc2[nH]cnc2C1`: the melting point was determined as 228 °C.

`O=c1[nH]c2ccc(CCN3CCN(c4cccc5c4CCCC5)CC3)cc2o1` yielded a melting point of 200 °C.

Consider `CCC(OC(C)C)c1cc(C(=O)OC)c(N)cc1C(F)(F)F` (stereo not drawn), for which the melting point lay in the range of 54 to 56 °C.

In turn, `COc1cc2c(cc1OC)CN(CCc1ccc(NC(=O)c3cccc4c(=O)c5cccc(OC)c5[nH]c34)c(C)c1)CC2` gave a melting point of 200 to 201 °C.

Consider `CS(=O)(=O)c1ccc(-c2nc(C(F)(F)F)nc(NN)c2-c2ccc(Cl)cc2)cc1`, for which the melting point lay in the range of 266 to 269 °C.

Take `CC(=O)OCC(=O)Nc1nc2c(Cl)cccc2s1`: the melting point is 205 to 207 °C.

In turn, `CN(C)c1ccc(NC(=O)NC2CCCC2)c(C(=O)NCC2CCN(C(c3ccccc3)c3ccccc3)CC2)c1` returned a melting point of 211 to 213 °C.

In turn, `COc1ccc(CCN)cc1OCCC(c1ccccc1)(c1ccccc1)c1ccccc1` registered a melting point of 111 to 112 °C.

In turn, `Cc1ccc(C(=O)Nc2cn(C3CCCCO3)nc2C(=O)NCC(F)(F)F)cn1` (stereo not drawn) had a melting point of 132 to 133 °C.

For the compound `CCOC(=O)C=CC(C)=CC=C(C)C=CC1=C(C)CCCC1(C)C`, the melting point lay within 65 to 66 °C.

For `N[C@@H](Cc1ccc(C(F)(F)F)cc1)[C@H](O)c1ccc(F)c(F)c1` (racemic), the melting point was in the range of 99 to 100 °C.

Compound `O=C1CCc2ccc(Oc3cccc(CN4CCN(c5cccc(Cl)c5Cl)CC4)c3)cc2N1` gave a melting point of 182 to 183 °C.

The values are drawn from a melting point compilation (Tetko et al.; mined from patent text by program, amines drawn as free bases though some values may be those of a salt).
